# Literature values as cited in patent publication US12029723B2, “Compounds and forms of treatment for female sexual disorders” (GTO PHARMA, LLC., priority 2015, dated 2024).
# Columns and labels:
# [1] = tested on: pre-menopausal women with SIAD related disorders
# liver = details: a person taking 400 mg daily in herbal substitutes for weight loss
Compound,share of women with the benefit ([1]; 100 mg daily for a minimum of 28 days) [%],"effect on GPPD (vestibulodynia, dyspareunia) or FOD ([1]; in vivo)","median placebo-corrected increase in satisfying sexual events (SSEs) ([1]; median baseline about 2-3 SSEs per month, six month period)",sedation or hypotension-related adverse events ([1]; vs 9.4% placebo) [%],liver injury (liver)
"O=c1[nH]c2ccccc2n1CCN1CCN(c2cccc(C(F)(F)F)c2)CC1 [Flibanserin, 2H-benzimidazol-2-one, 1,3-dihydro-1-[2-[4-[3(tri-fluoromethyl)phenyl]-1-piperazinyl]ethyl]]",18,no therapeutic effect at all,0.5-1.0 SSEs per month,28.6,–
Epigallocatechin-3-gallate [EGCG],–,–,–,–,acute but reversible liver failure
